Experimental data as given in PMC2800054 (Journal of medicinal chemistry, 2008).
Values after ≈ are worked out from the molar mass of the structure shown.

What was measured:
protein synthesis = settings: read-out: IC50 (inhibition of protein synthesis); in vitro protein translation assay
[1] = cited from earlier work
[2] = cited from earlier work; remark: listed apart in the source
MbtA [3] = molecular target: T1, MbtA (Mycobacterium tuberculosis, UniProt P71716); settings: cited from earlier work; for ΔG^0 (free energy of binding): acyladenylate fragments
MbtA [4] = molecular target: T1, MbtA; format: biochemical; settings: for fold loss of potency (KI^app) relative to 6 / fold increase in potency / binding affinity (KI^app) relative to 6: relative to parent compound 6
M. tuberculosis H37Rv [5] = assay: M. tuberculosis H37Rv MIC assay; format: cell-based, Mycobacterium tuberculosis; settings: ratio of selectivity factors
MbtA [6] = molecular target: T1, MbtA; format: binding; settings: ITC
[7] = molecular target: cysteine adenylation domain in the multifunctional NRPS module known as HMWP2; settings: read-out: Ki^app; cited from earlier work
M. tuberculosis H37Rv [8] = settings: under the assay conditions; positive control; cited from earlier work
[9] = saturating salicylic acid, 298 K

T1 sequence (P71716 whole entry, the tested form may be a part): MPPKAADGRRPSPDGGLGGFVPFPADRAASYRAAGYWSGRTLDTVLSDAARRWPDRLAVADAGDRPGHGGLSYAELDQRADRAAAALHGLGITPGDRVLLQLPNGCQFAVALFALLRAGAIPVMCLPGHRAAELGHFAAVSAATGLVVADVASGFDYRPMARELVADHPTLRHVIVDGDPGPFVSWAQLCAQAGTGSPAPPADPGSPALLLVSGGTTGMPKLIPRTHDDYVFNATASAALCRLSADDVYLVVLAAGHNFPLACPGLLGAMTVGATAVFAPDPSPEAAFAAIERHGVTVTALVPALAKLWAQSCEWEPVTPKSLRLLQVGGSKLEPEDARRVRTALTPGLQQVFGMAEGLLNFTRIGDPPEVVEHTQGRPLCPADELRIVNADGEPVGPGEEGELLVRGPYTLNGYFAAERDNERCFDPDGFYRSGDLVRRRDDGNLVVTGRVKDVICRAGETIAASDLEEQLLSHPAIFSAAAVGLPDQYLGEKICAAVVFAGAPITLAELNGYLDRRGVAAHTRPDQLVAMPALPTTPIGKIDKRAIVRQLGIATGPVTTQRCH

## 5′-O-[N-(salicyl)sulfamoyl]adenosine [Compound 6]
Protein synthesis
  IC50: > 100 µM
[1]
  stability in human plasma: stable
[2]
  stability in human liver microsomes: stable

## Nc1ncnc2c1ncn2[C@@H]1O[C@H](COP(=O)(O)O)[C@@H](O)[C@H]1O [AMP, adenosine monophosphate]
MbtA [3]
  ΔG^0 (free energy of binding): -5.0 kcal/mol

## CCN(CC)CC.Nc1ncnc2c1ccn2[C@@H]1O[C@H](COS(=O)(=O)NC(=O)c2ccccc2O)[C@@H](O)[C@H]1O [Compound 7, 7-Deaza-5′-O-[N-(2-hydroxybenzoyl)sulfamoyl]adenosine Triethylammonium Salt]
MbtA [4]
  fold loss of potency (KI^app) relative to 6: 4 fold

## CCN(CC)CC.O=C(NS(=O)(=O)OC[C@H]1O[C@@H](n2cnc3c(=O)[nH]cnc32)[C@H](O)[C@@H]1O)c1ccccc1O [Compound 9, 5′-O-[N-(2-Hydroxybenzoyl)sulfamoyl]inosine Triethylammonium Salt]
MbtA [4]
  fold loss of potency (KI^app) relative to 6: 121 fold

## CCN(CC)CC.CN(C)c1ncnc2c1ncn2[C@@H]1O[C@H](COS(=O)(=O)NC(=O)c2ccccc2O)[C@@H](O)[C@H]1O [Compound 10, 5′-O-[N-(2-Hydroxybenzoyl)sulfamoyl]-N^6,N^6′-dimethyladenosine Triethylammonium Salt]
MbtA [4]; 10 versus 11
  fold activity difference between N-6-dimethyl 10 and N-6-methyl 11: ~ 238 fold
MbtA [4]
  fold loss of potency (KI^app) relative to 6: 58 fold

## CC(C)CNc1ncnc2c1ncn2[C@@H]1O[C@H](COS(=O)(=O)[N-]C(=O)c2ccccc2O)[C@@H](O)[C@H]1O.[Na+] [Compound 15, 5′-O-[N-(2-Hydroxybenzoyl)sulfamoyl]-N^6-isobutyladenosine Sodium Salt]
MbtA [4]
  fold loss of potency (KI^app) relative to 6: 1140 fold

## CCN(CC)CC.O=C(NS(=O)(=O)OC[C@H]1O[C@@H](n2cnc3c(NC4CC4)ncnc32)[C@H](O)[C@@H]1O)c1ccccc1O [Compound 16, N^6-Cyclopropyl-5′-O-[N-(2-hydroxybenzoyl)sulfamoyl]adenosine Triethylammonium Salt]
MbtA [4]
  fold increase in potency / binding affinity (KI^app) relative to 6: 3.5 fold
M. tuberculosis H37Rv [5]
  enhancement in selectivity S relative to Sal-AMS 6: 16 fold

## O=C([N-]S(=O)(=O)OC[C@H]1O[C@@H](n2cnc3c(NC4CCC4)ncnc32)[C@H](O)[C@@H]1O)c1ccccc1O.[Na+] [Compound 17, N^6-Cyclobutyl-5′-O-[N-(2-hydroxybenzoyl)sulfamoyl]adenosine Sodium Salt]
MbtA [4]
  fold loss of potency (KI^app) relative to 6: 124 fold

## CCN(CC)CC.Nc1nc(I)nc2c1ncn2[C@@H]1O[C@H](COS(=O)(=O)NC(=O)c2ccccc2O)[C@@H](O)[C@H]1O [Compound 23, 5′-O-[N-(2-Hydroxybenzoyl)sulfamoyl]-2-iodoadenosine Triethylammonium Salt]
MbtA [4]
  fold increase in potency / binding affinity (KI^app) relative to 6: 2 fold

## CCN(CC)CC.Nc1nc(Nc2ccccc2)nc2c1ncn2[C@@H]1O[C@H](COS(=O)(=O)NC(=O)c2ccccc2O)[C@@H](O)[C@H]1O [Compound 24, 2-Anilino-5′-O-[N-(2-hydroxybenzoyl)sulfamoyl]adenosine Triethylammonium Salt]
MbtA [4]
  fold increase in potency / binding affinity (KI^app) relative to 6: 7 fold

## CCN(CC)CC.Nc1nc(C#Cc2ccccc2)nc2c1ncn2[C@@H]1O[C@H](COS(=O)(=O)NC(=O)c2ccccc2O)[C@@H](O)[C@H]1O [Compound 25, 5′-O-[N-(2-Hydroxybenzoyl)sulfamoyl]-2-(phenylethynyl)adenosine Triethylammonium Salt]
MbtA [4]
  fold increase in potency / binding affinity (KI^app) relative to 6: 17 fold

## CCN(CC)CC.Nc1nc(-c2ccccc2)nc2c1ncn2[C@@H]1O[C@H](COS(=O)(=O)NC(=O)c2ccccc2O)[C@@H](O)[C@H]1O [Compound 26, 5′-O-[N-(2-Hydroxybenzoyl)sulfamoyl]-2-phenyladenosine Triethylammonium Salt]
MbtA [6]
  ΔG^0: -17.5 kcal/mol
MbtA [6]; [9]
  ΔH: -15.9 ± 0.6 kcal/mol
  −TΔS: -1.6 ± 1.4 kcal/mol

## Nc1nc(-c2ccccc2-c2ccccc2)nc2c1ncn2[C@@H]1O[C@H](COS(=O)(=O)[N-]C(=O)c2ccccc2O)[C@@H](O)[C@H]1O.[Na+] [Compound 27, 2-(Biphen-2-yl)-5′-O-[N-(2-hydroxybenzoyl)sulfamoyl]adenosine Sodium Salt]
MbtA [4]; 27 compared to 26
  fold loss in potency compared to 26: 174 fold

## Nc1ncnc2c1ncn2[C@@H]1O[C@H](COS(=O)(=O)NC(=O)[C@@H](N)CS)[C@@H](O)[C@H]1O [cysteyl-AMS]
[7]
  Ki: 0.24 µM

## NNC(=O)c1ccncc1 [isoniazid]
M. tuberculosis H37Rv [8]
  MIC99: 0.18 µM (≈ 0.0247 µg/mL)

## O=C(O)c1ccccc1O [salicylic acid]
MbtA [3]
  ΔG^0 (free energy of binding): -7.9 kcal/mol
MbtA [3]; association constant with MbtA
  KA(Sal): 664000 M⁻¹
MbtA [3]; enthalpy with MbtA
  ΔH(Sal): -6.77 kcal/mol
MbtA [3]; weak ligand for ITC displacement
  Kd: 1.63 ± 0.52 µM
